Where a name gives a salt, the structure may show the parent alone.
Test system: shunt pathway
Test: Test Code 036 (C-Shunt inhibitor), lysis of fragile human erythrocytes in autologous serum, cobra venom factor activated
Type: biochemical
Parameters: key: N=Negative (no activity)
Settings: serial two-fold dilution assay; higher well number indicates higher activity; N = negative
Description: An active inhibitor protects C2 from C1 and C4; (ii) Test Code 035 (C3-C9 inhibitor)--This test determines the ability of the late components of human complement (C3-C9) to lyse EAC 142 in the presence of appropriate dilutions of the test compound. An active inhibitor products EAC 142 from lysis by human C3-C9; (iii) Test Code 036 (C-Shunt inhibitor)--In this test human erythrocytes rendered fragile are lysed in autologous serum via the shunt pathway activated by cobra venom factor in the presence of appropriate dilutions of the test compound. Inhibition of the shunt pathway results in failure of lysis; (iv) Forssman Vasculitis Test--Here, the well known complement dependent lesion, Forssman vasculitis, is produced in guinea pigs by intradermal injection of rabbit anti-Forssman antiserum. The lesion is measured in terms of diameter, edema and hemorrhage and the extent to which a combined index of these is inhibited by prior intraperitoneal injection of the test compound at 200 mg/kg is then reported, unless otherwise stated; (v) Forssman Shock Test--Lethal shock is produced in guinea pigs by an i.v. injection of anti-Forssman antiserum and the harmonic mean death time of treated guinea pigs is compared with that of simultaneous controls; (vi) Complement Level Reduction Test--In this test, the above dosed guinea pigs, or others, are bled for serum and the complement level is determined in undiluted serum by the capillary tube method of U.S. Pat. No. 3,876,376 and compared to undosed control guinea pigs; and (vii) Cap 50 Test--Here, appropriate amounts of the test compound are added to a pool of guinea pig serum in vitro, after which the undiluted serum capillary tube assay referred to above is run. The concentration of compound inhibiting 50% is reported.

| SMILES | Shunt Inhibition 036* Wells |
| --- | --- |
| O=C(Nc1cccc(S(=O)(=O)Nc2cccc(S(=O)(=O)Nc3cc(S(=O)(=O)O)cc4cc(S(=O)(=O)O)cc(S(=O)(=O)O)c34)c2)c1)Nc1cccc(S(=O)(=O)Nc2cccc(S(=O)(=O)Nc3cc(S(=O)(=O)O)cc4cc(S(=O)(=O)O)cc(S(=O)(=O)O)c34)c2)c1 [8,8'-[Ureylenebis[[(1,3-phenylenesulfonylimino)-1,3-phenylenesulfonyl]imino]]di-1,3,6-naphthalenetrisulfonic acid, hexasodium salt] | +1 Wells |
| Cc1ccc(NC(=O)Nc2ccc(C)c(S(=O)(=O)Nc3ccc(C)c(S(=O)(=O)Nc4cc(S(=O)(=O)[O-])cc5cc(S(=O)(=O)[O-])cc(S(=O)(=O)[O-])c45)c3)c2)cc1S(=O)(=O)Nc1ccc(C)c(S(=O)(=O)Nc2cc(S(=O)(=O)[O-])cc3cc(S(=O)(=O)[O-])cc(S(=O)(=O)[O-])c23)c1.[Na+].[Na+].[Na+].[Na+].[Na+].[Na+] [8,8'-[Ureylenebis[[[(6-methyl-3,1-phenylene)sulfonyl]imino]-[[(6-methyl-3,1-phenylene)sulfonyl]imino]]]di-1,3,6-naphthalenetrisulfonic acid, hexasodium salt] | N |
| Cc1ccc(S(=O)(=O)Nc2ccc(S(=O)(=O)[O-])c3cc(S(=O)(=O)[O-])cc(S(=O)(=O)[O-])c23)cc1NS(=O)(=O)c1cccc(NC(=O)Nc2cccc(S(=O)(=O)Nc3cc(S(=O)(=O)Nc4ccc(S(=O)(=O)[O-])c5cc(S(=O)(=O)[O-])cc(S(=O)(=O)[O-])c45)ccc3C)c2)c1.[Na+].[Na+].[Na+].[Na+].[Na+].[Na+] [8,8'-[Ureylenebis[(m-phenylenesulfonylimino)(4-methyl-3,1-phenylenesulfonyl)imino]]di-1,3,5-naphthalenetrisulfonic acid, hexasodium salt] | N |

— patent publication US4155930A, “Ureylene phenylene anionic naphthalenesulfonic acids” (American Cyanamid Company, priority 1978, dated 1979)
